Here are results for 14 compounds from patent publication US11161856B2 (H. Lundbeck A/S, priority 2017, dated 2021).

Holding throughout (format): biochemical
In one experiment the target is T1, MAGL (Homo sapiens, UniProt Q99685).
T1 construct: Proteomes (human prefrontal cortex or cell membrane fractions); from tissue
T1 sequence (Q99685 1-303): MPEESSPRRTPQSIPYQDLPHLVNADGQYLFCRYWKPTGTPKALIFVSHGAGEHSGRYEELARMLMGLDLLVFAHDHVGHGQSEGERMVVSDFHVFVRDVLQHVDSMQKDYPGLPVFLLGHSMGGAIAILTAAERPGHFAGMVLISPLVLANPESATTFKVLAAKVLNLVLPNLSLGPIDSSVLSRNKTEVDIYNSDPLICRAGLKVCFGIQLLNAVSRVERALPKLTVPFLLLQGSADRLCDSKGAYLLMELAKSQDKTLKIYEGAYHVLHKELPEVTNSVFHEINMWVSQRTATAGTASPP
Put plainly: In vitro competitive activity-based protein profiling (FP-Rh or HT-01 probe, gel-based). Further details: IC50 MGLL PC3 (Human, μM) / IC50 MGLL PFC (Human, μM): scale not given here. To be noted: for % Inh MGLL PFC (Human, μM) / % Inh MGLL PC3 (Human, μM): concentration not given (μM). As to the method: (§1) In Vitro Competitive Activity-Based Protein Profiling.
(§2) Proteomes (human prefrontal cortex or cell membrane fractions) (50 μL, 1.0 mg/mL total protein concentration) were preincubated with varying concentrations of inhibitors at 37° C. After 30 min, FP-Rh or HT-01 (1.0 μL, 50 μM in DMSO) was added and the mixture was incubated for another 30 min at room temperature. Reactions were quenched with SDS loading buffer (15 μL-4×) and run on SDS-PAGE.

A further experiment concerns the target T2, MGLL (Mus musculus, UniProt O35678).
T2 construct: Brain; from tissue; host or cells: mouse brain proteome
T2 sequence (O35678 1-303): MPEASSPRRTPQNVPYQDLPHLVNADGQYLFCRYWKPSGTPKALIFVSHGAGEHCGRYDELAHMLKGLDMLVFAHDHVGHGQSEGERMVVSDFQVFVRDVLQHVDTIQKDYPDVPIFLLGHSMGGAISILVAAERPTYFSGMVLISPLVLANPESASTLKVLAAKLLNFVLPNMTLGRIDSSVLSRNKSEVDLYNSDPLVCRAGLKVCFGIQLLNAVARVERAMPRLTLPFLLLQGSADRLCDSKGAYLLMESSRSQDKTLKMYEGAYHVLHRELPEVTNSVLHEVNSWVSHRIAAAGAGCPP
The experiment in a line: In vitro competitive activity-based protein profiling, mouse brain proteome (MGLL). The following applies: concentration not given (μM).

The target in a further experiment is T3, ABHD6 (Mus musculus, UniProt Q8R2Y0).
T3 construct: Brain; from tissue; host or cells: mouse brain proteome
T3 sequence (Q8R2Y0 1-336): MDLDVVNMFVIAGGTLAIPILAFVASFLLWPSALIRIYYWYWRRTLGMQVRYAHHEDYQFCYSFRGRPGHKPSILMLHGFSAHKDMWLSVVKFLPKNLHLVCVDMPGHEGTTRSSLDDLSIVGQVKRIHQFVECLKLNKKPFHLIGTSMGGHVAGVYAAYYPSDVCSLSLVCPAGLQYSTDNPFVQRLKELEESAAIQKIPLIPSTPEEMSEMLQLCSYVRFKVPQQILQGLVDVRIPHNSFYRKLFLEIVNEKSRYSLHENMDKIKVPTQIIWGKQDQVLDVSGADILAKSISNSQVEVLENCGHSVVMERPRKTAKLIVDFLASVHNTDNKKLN
The experiment in a line: In vitro competitive activity-based protein profiling, mouse brain proteome (ABHD6). To be noted: mouse brain proteome; concentration not given (μM). As to the method:
[The source words this procedure for another target and reports this target under the same test.] as §1, §2

[1] abbreviates: prefrontal cortex (PFC) proteome.

With `O=C(O)[C@@H]1CCCN(c2cc(C(F)(F)F)ccc2CN2CC3(CCN(C(=O)OC(C(F)(F)F)C(F)(F)F)CC3)C2)C1` [Example 107, (R)-1-(2-((7-(((1,1,1,3,3,3-Hexafluoropropan-2-yl)oxy)carbonyl)-2,7-diazaspiro[3,5]nonan-2-yl)methyl)-5-(trifluoromethyl)phenyl) piperidine-3-carboxylic acid], the “% Inh MGLL PFC (Human, μM)” value on MAGL (setting [1]) is reported as “### (### is ≥75%)”. Further, the “% Inh MGLL Brain (Mouse, μM)” value at MGLL is “### (### is ≥75%)”. In addition, the “% Inh ABHD6 Brain (Mouse, μM)” value on ABHD6 is “# (# is ≤25%)”.
Take `CC1(C(=O)O)CCN(c2cc(CN3CC4(CCN(C(=O)OC(C(F)(F)F)C(F)(F)F)CC4)C3)cc(C(F)(F)F)c2)C1` (stereo not drawn) [Example 121, l-(3-((7-(((1,1,1,3,3,3-Hexafluoropropan-2-yl)oxy)carbonyl)-2,7-diazaspiro[3.5]nonan-2-yl)methyl)-5-(trifluoromethyl)phenyl)-3-methylpyrrolidine-3-carboxylic acid]: the “% Inh MGLL PFC (Human, μM)” value on MAGL (setting [1]) is on record as “### (### is ≥75%)”. The “% Inh MGLL Brain (Mouse, μM)” value at MGLL is on record as “### (### is ≥75%)”. In addition, the “% Inh ABHD6 Brain (Mouse, μM)” value at ABHD6 is “### (### is ≥75%)”.
For `O=C(O)C1CCN(c2cc(CN3CCC4(CC3)CCN(C(=O)OC(C(F)(F)F)C(F)(F)F)C4)cc(S(F)(F)(F)(F)F)c2)CC1` [Example 226, 1-(3-((2-(((1,1,1,3,3,3-Hexafluoropropan-2-yl)oxy)carbonyl)-2,8-diazaspiro[4.5]decan-8-yl)methyl)-5-(pentafluoro-16-sulfancyl)phenyl)piperidine-4-carboxylic acid], the “% Inh MGLL PFC (Human, μM)” value on MAGL (setting [1]) is given as “### (### is ≥75%)”. The “% Inh MGLL Brain (Mouse, μM)” value at MGLL is “### (### is ≥75%)”. In addition, at ABHD6, the “% Inh ABHD6 Brain (Mouse, μM)” value is “## (## is between 25 and 75%)”.
Take `CC(C)(C#Cc1c(F)cccc1CN1CCCC12CCN(C(=O)OC(C(F)(F)F)C(F)(F)F)CC2)C(=O)O` [Example 147, 4-{2-Fluoro-6-[(8-{[(1,1,1,3,3,3-hexafluoropropan-2-yl)oxy]carbonyl}-1,8-diazaspiro[4.5]decan-1-yl)methyl]phenyl}-2,2-dimethylbut-3-ynoic acid]: the “% Inh MGLL PC3 (Human, μM)” value on MAGL (PC3 cell proteome) is listed as “### (### is ≥75%)”. In addition, the “% Inh MGLL Brain (Mouse, μM)” value on MGLL is “### (### is ≥75%)”. For the same compound, at ABHD6, the “% Inh ABHD6 Brain (Mouse, μM)” value is reported as “# (# is ≤25%)”.
Turning to `O=C(OC(C(F)(F)F)C(F)(F)F)N1CCC2(CCCN2C(=O)c2ccc(C(F)(F)F)cc2)CC1` [Example 83, 1,1,1,3,3,3-Hexafluoropropan-2-yl 1-(4-(trifluoromethyl)benzoyl)-1,8-diazaspiro[4.5]decane-8-carboxylate], on MAGL (setting [1]), the “% Inh MGLL PFC (Human, μM)” value was “### (### is ≥75%)”. Besides, the “% Inh MGLL Brain (Mouse, μM)” value at MGLL is reported as “### (### is ≥75%)”. Also, the “% Inh ABHD6 Brain (Mouse, μM)” value at ABHD6 is “### (### is ≥75%)”.
As to `CN(Cc1cc(C(F)(F)F)cc(C2(C(=O)O)CCCC2)c1)C1(C)CCN(C(=O)OC(C(F)(F)F)C(F)(F)F)CC1` [Example 138, l-(3-{[(1-{[(1,1,1,3,3,3-Hexafluoropropan-2-yl)oxy]carbonyl}-4-methylpiperidin-4-yl)(methyl)ainino]methyl}-5-(trifluoromethyl)phenyl)cyclop entane-1-carboxylic acid], the “% Inh MGLL PC3 (Human, μM)” value on MAGL (PC3 cell proteome) was “### (### is ≥75%)”. Moreover, the “% Inh MGLL Brain (Mouse, μM)” value on MGLL is “### (### is ≥75%)”. For the same compound, the “% Inh ABHD6 Brain (Mouse, μM)” value at ABHD6 was “### (### is ≥75%)”.
As for `CN(Cc1ccc(C(F)(F)F)cc1N1CCOC(C(=O)O)C1)C1(C)CCN(C(=O)OC(C(F)(F)F)C(F)(F)F)CC1` (stereo not drawn) [Example 108, 4-(2-(((1-(((1,1,1,3,3,3-Hexafluoropropan-2-yl)oxy)carbonyl)-4-methylpiperidin-4-yl)(methyl)amino)methyl)-5-(trifluoromethyl)phenyl) morpholine-2-carboxylic acid], the “% Inh MGLL PFC (Human, μM)” value on MAGL (setting [1]) is given as “### (### is ≥75%)”. For the same compound, the “% Inh MGLL Brain (Mouse, μM)” value at MGLL was “### (### is ≥75%)”. Also, the “% Inh ABHD6 Brain (Mouse, μM)” value on ABHD6 was “## (## is between 25 and 75%)”.
On to `CN(Cc1ccc(C(F)(F)F)cc1N1CCC(N2CCC[C@H]2C(=O)O)CC1)C1(C)CCN(C(=O)OC(C(F)(F)F)C(F)(F)F)CC1` [Example 161, (1-(2-(((1-(((1,1,1,3,3,3-Hexafluoropropan-2-yl)oxy)carbonyl)-4-methylpiperidin-4-yl)(methyl)ainino)methyl)-5-(trifluoromethyl)phenyl)piperidin-4-yl)proline], for which the “% Inh MGLL PC3 (Human, μM)” value on MAGL (PC3 cell proteome) is listed as “### (### is ≥75%)”. Moreover, the IC50 at MAGL (PC3 cell proteome, read-out: IC50 MGLL PC3 (Human)) was less than 100 nM. Further, the “% Inh MGLL Brain (Mouse, μM)” value at MGLL is recorded as “### (### is ≥75%)”. The “% Inh ABHD6 Brain (Mouse, μM)” value on ABHD6 was “### (### is ≥75%)”.
Turning to `N#Cc1ccc(C(=O)N2CCC3(CCN(C(=O)OC(C(F)(F)F)C(F)(F)F)CC3)C2)cc1C(F)(F)F` [Example 12, 1,1,1,3,3,3-Hexafluoropropan-2-yl 2-(4-cyano-3-(trifluoromethyl)benzoyl)-2,8-diazaspiro[4.5]decane-8-carboxylate], on MAGL (PC3 cell proteome), the “IC50 MGLL PC3 (Human, μM)” value was “* * *”. Moreover, at MAGL (setting [1]), the “% Inh MGLL PFC (Human, μM)” value is “### (### is ≥75%)”. Moreover, the “% Inh MGLL Brain (Mouse, μM)” value on MGLL is reported as “### (### is ≥75%)”. In addition, on ABHD6, the “% Inh ABHD6 Brain (Mouse, μM)” value was “### (### is ≥75%)”.
For `O=C(O)C1CCN(Cc2cc(CN3CCC4(CC3)CCN(C(=O)OC(C(F)(F)F)C(F)(F)F)C4)ccc2Cl)CC1` [Example 224, l-(2-Chloro-5-((2-(((1,1,1,3,3,3-hexafluoropropan-2-yl)oxy)carbonyl)-2,8-diazaspiro[4.5]decan-8-yl)methyl)benzyl)piperidine-4-carboxylic acid], at MAGL (setting [1]), the “% Inh MGLL PFC (Human, μM)” value is on record as “# (# is ≤25%)”. Further, the “% Inh MGLL Brain (Mouse, μM)” value at MGLL was “## (## is between 25 and 75%)”. Further, at ABHD6, the “% Inh ABHD6 Brain (Mouse, μM)” value was “# (# is ≤25%)”.
Turning to `CN(Cc1ccc(Cl)cc1C1(C(=O)O)CCCC1)C1(C)CCN(C(=O)OC(C(F)(F)F)C(F)(F)F)CC1` [Example 142, 1-(5-Chloro-2-{[(1-{[(1,1,1,3,3,3-hexafluoropropan-2-yl)oxy]carbonyl}-4-methylpiperidin-4-yl)(methyl)amino]methyl}phenyl)cyclopentane-1-carboxylic acid], on MAGL (PC3 cell proteome), the “% Inh MGLL PC3 (Human, μM)” value is on record as “### (### is ≥75%)”. For the same compound, the “% Inh MGLL Brain (Mouse, μM)” value on MGLL was “### (### is ≥75%)”. In addition, at ABHD6, the “% Inh ABHD6 Brain (Mouse, μM)” value was “# (# is ≤25%)”.
In the case of `CN(Cc1ccc(C(F)(F)F)cc1CN1CCC(C(=O)O)CC1)C1(C)CCN(C(=O)OC(C(F)(F)F)C(F)(F)F)CC1` [Example 137, l-(2-(((1-(((1,1,1,3,3,3-Hexafluoropropan-2-yl)oxy)carbonyl)-4-methylpiperidin-4-yl)(methyl)amino)methyl)-5-(trifluoromethyl)benzyl)piperidine-4-carboxylic acid], on MAGL (PC3 cell proteome), the “% Inh MGLL PC3 (Human, μM)” value is “### (### is ≥75%)”. At MGLL, the “% Inh MGLL Brain (Mouse, μM)” value is recorded as “### (### is ≥75%)”. The “% Inh ABHD6 Brain (Mouse, μM)” value at ABHD6 was “# (# is ≤25%)”.
Regarding `O=C(O)C1CCN(c2cc(F)ccc2CN2CC3(CCN(C(=O)OC(C(F)(F)F)C(F)(F)F)CC3)C2)CC1` [Example 123, l-(5-Fluoro-2-((7-(((1,1,1,3,3,3-hexafluoropropan-2-yl)oxy)carbonyl)-2,7-diazaspiro[3,5]nonan-2-yl)methyl)phenyl)piperidine-4-carboxylic acid], the “% Inh MGLL PFC (Human, μM)” value on MAGL (setting [1]) is “### (### is ≥75%)”. Besides, the “% Inh MGLL Brain (Mouse, μM)” value at MGLL is given as “### (### is ≥75%)”. For the same compound, the “% Inh ABHD6 Brain (Mouse, μM)” value at ABHD6 was “# (# is ≤25%)”.
On to `O=C(O)C1CCN(Cc2cc(Cl)cc(C(=O)N3CCCC34CCN(C(=O)OC(C(F)(F)F)C(F)(F)F)CC4)c2)CC1` [Example 11, 1-(3-Chloro-5-(8-(((1,1,1,3,3,3-hexafluoropropan-2-yl)oxy)carbonyl)-1,8-diazaspiro[4.5]decane-1-carbonyl)benzyl)piperidine-4-carboxylic acid], for which, on MAGL (PC3 cell proteome), the “% Inh MGLL PC3 (Human, μM)” value was “### (### is ≥75%)”. The “IC50 MGLL PFC (Human, μM)” value at MAGL (setting [1]) is recorded as “* * *”. Also, at MGLL, the “% Inh MGLL Brain (Mouse, μM)” value is listed as “### (### is ≥75%)”. Besides, at ABHD6, the “% Inh ABHD6 Brain (Mouse, μM)” value is recorded as “# (# is ≤25%)”.
